Consider 15 molecules from US4153710A, “N-(4-[2-(pyrazole-1-carbonamide)-ethyl]-benzenesulphonyl)-urea” (Starogardzkie Zaklady Farmaceutyczne POLFA, priority 1976, dated 1979).

This assay concerns blood-glucose concentration. Briefly: Decrease in blood-glucose concentration in rats after oral dose (Table 1; ED30 rats Table 2). The class given is in vivo. As to conditions: Rattus norvegicus, po; for inhibition in vivo at 4 mg/kg: p.os. 4 mg/kg; for inhibition in vivo at 10 mg/kg: p.os. 10 mg/kg; for inhibition in vivo at 50 mg/kg: p.os. 50 mg/kg; for ED50: p.os., Table 1; for inhibition in vivo at 0.5 mg/kg: p.os. 0.5 mg/kg; for inhibition in vivo at 1 mg/kg: p.os. 1 mg/kg; for inhibition in vivo at 5 mg/kg: p.os. 5 mg/kg; for inhibition in vivo at 20 mg/kg: p.os. 20 mg/kg; for inhibition in vivo at 2 mg/kg: p.os. 2 mg/kg; for inhibition in vivo at 0.25 mg/kg: p.os. 0.25 mg/kg. The text has this:
The hypoglycemic activity of N-{4-[2-(pyrazole-1-carbonamide)-ethyl]-benzenesulphonyl}-ureas prepared according to the present invention can be noticed after their oral administration to mice, rats, rabbits and people and when determining the glucose concentration in blood with a known enzymatic method using glucose oxidase.
The exemplary comparison of effective doses (ED30) and the effect of oral dose size of the compounds prepared according to the present invention with Glibornuride, which is distinguished by its high effectiveness and good tolerance when administered to people, on the glucose concentration in the blood of rats, is given in Table 1.

The molecule `Cc1nn(C(=O)NCCc2ccc(S(=O)(=O)NC(=O)NC3CCCCC3)cc2)c(C)c1C` [compound 10] returned an ED50 of 4 mg/kg. For the setting “1 h”, the inhibition in vivo at 4 mg/kg stood at 24%, testing at 10 mg/kg gave an inhibition in vivo of 35% and the inhibition in vivo at 50 mg/kg came to 48%. Under “3 h”, the inhibition in vivo at 4 mg/kg is 35%, testing at 10 mg/kg gave an inhibition in vivo of 49% and testing at 50 mg/kg gave an inhibition in vivo of 62%. Under “6 h”, this molecule returned an inhibition in vivo at 4 mg/kg of 28%, an inhibition in vivo at 10 mg/kg of 17% and an inhibition in vivo at 50 mg/kg of 52%.

On to `CCCCNC(=O)NS(=O)(=O)c1ccc(CCNC(=O)n2ccc(C)n2)cc1` [compound 21], for which, where the note is “1 h”, the inhibition in vivo at 0.5 mg/kg stood at 6%, the inhibition in vivo at 1 mg/kg was found to be 23%, at 5 mg/kg the inhibition in vivo was 22% and the inhibition in vivo at 10 mg/kg came to 55%. Besides, the inhibition in vivo at 20 mg/kg (1 h) was 50%. Where the note is “3 h”, this molecule came in with an inhibition in vivo at 0.5 mg/kg of 22%, an inhibition in vivo at 1 mg/kg of 23%, an inhibition in vivo at 5 mg/kg of 38% and an inhibition in vivo at 10 mg/kg of 53%. In addition, the inhibition in vivo at 20 mg/kg (3 h) is 55%. For the setting “6 h”, this molecule had an inhibition in vivo at 0.5 mg/kg of 29%, an inhibition in vivo at 1 mg/kg of 22%, an inhibition in vivo at 5 mg/kg of 43% and an inhibition in vivo at 10 mg/kg of 56%. Under “6 h”, this molecule gave an inhibition in vivo at 20 mg/kg of 56%.

As for `Cc1nn(C(=O)NCCc2ccc(S(=O)(=O)NC(=O)NC3CCCCC3)cc2)cc1Cl` [compound 9], the inhibition in vivo at 10 mg/kg came out at 24% (1 h), 7% (3 h) and 0% (6 h).

On to `O=C(NC1CCCCC1)NS(=O)(=O)c1ccc(CCNC(=O)n2cc(Cl)cn2)cc1` [compound 5], for which the inhibition in vivo at 10 mg/kg amounted to 16% (1 h) and 0% (3 h). The inhibition in vivo at 50 mg/kg came out at 38% (1 h), 36% (3 h) and 12% (6 h).

`CCCNC(=O)NS(=O)(=O)c1ccc(CCNC(=O)n2ccc(C)n2)cc1` [compound 22]: where the note is “1 h”, the inhibition in vivo at 2 mg/kg was 4%, testing at 5 mg/kg gave an inhibition in vivo of 15%, the inhibition in vivo at 10 mg/kg is 25% and 20 mg/kg produced 45% inhibition in vivo. Moreover, at 50 mg/kg the inhibition in vivo (1 h) was 54%. For the setting “3 h”, this molecule came in with an inhibition in vivo at 2 mg/kg of 26%, an inhibition in vivo at 5 mg/kg of 24%, an inhibition in vivo at 10 mg/kg of 29% and an inhibition in vivo at 20 mg/kg of 56%. Under “3 h”, testing at 50 mg/kg gave an inhibition in vivo of 55%. Also, where the note is “6 h”, at 2 mg/kg the inhibition in vivo was 23%, at 5 mg/kg the inhibition in vivo was 26%, the inhibition in vivo at 10 mg/kg turned out to be 35% and the inhibition in vivo at 20 mg/kg worked out at 56%. Besides, at 50 mg/kg the inhibition in vivo (6 h) was 48%.

`O=C(NC1CCCCC1)NS(=O)(=O)c1ccc(CCNC(=O)n2cccn2)cc1` [compound 1] gave an ED50 of 1.8 mg/kg. For the same molecule, where the note is “1 h”, testing at 0.25 mg/kg gave an inhibition in vivo of 12%, the inhibition in vivo at 0.5 mg/kg stood at 21%, at 1 mg/kg the inhibition in vivo was 27% and the inhibition in vivo at 2 mg/kg worked out at 23%. Under “1 h”, the inhibition in vivo at 4 mg/kg came out at 19% and the inhibition in vivo at 10 mg/kg came out at 50%. Besides, under “3 h”, 0.25 mg/kg produced 19% inhibition in vivo, the inhibition in vivo at 0.5 mg/kg was 19%, 1 mg/kg produced 27% inhibition in vivo and at 2 mg/kg the inhibition in vivo was 34%. In addition, under “3 h”, testing at 4 mg/kg gave an inhibition in vivo of 37% and at 10 mg/kg the inhibition in vivo was 52%. Under “6 h”, this molecule registered an inhibition in vivo at 0.25 mg/kg of 0%, an inhibition in vivo at 0.5 mg/kg of 11%, an inhibition in vivo at 1 mg/kg of 14% and an inhibition in vivo at 2 mg/kg of 11%. Moreover, the inhibition in vivo at 10 mg/kg (6 h) was 29%.

In turn, `Cc1cnn(C(=O)NCCc2ccc(S(=O)(=O)NC(=O)NC3CCCC3)cc2)c1` [compound 17] came in with an ED50 of 2.3 mg/kg. For the setting “1 h”, at 2 mg/kg the inhibition in vivo was 29%, the inhibition in vivo at 4 mg/kg is 41% and the inhibition in vivo at 10 mg/kg was 41%. Where the note is “3 h”, at 2 mg/kg the inhibition in vivo was 16%, the inhibition in vivo at 4 mg/kg is 41% and the inhibition in vivo at 10 mg/kg stood at 51%. For the setting “6 h”, the inhibition in vivo at 2 mg/kg turned out to be 5%, testing at 4 mg/kg gave an inhibition in vivo of 23% and the inhibition in vivo at 10 mg/kg was 28%.

For the molecule `CCc1nn(C(=O)NCCc2ccc(S(=O)(=O)NC(=O)NC3CCCCC3)cc2)cc1C` [compound 8], it took a dose of 4 mg/kg to reach the 50% effect level (ED50). For the setting “1 h”, this molecule had an inhibition in vivo at 1 mg/kg of 17%, an inhibition in vivo at 4 mg/kg of 19% and an inhibition in vivo at 10 mg/kg of 27%. In addition, under “3 h”, the inhibition in vivo at 1 mg/kg stood at 18%, testing at 4 mg/kg gave an inhibition in vivo of 31% and the inhibition in vivo at 10 mg/kg worked out at 45%. Moreover, where the note is “6 h”, the inhibition in vivo at 1 mg/kg came to 15%, at 4 mg/kg the inhibition in vivo was 15% and the inhibition in vivo at 10 mg/kg was 25%.

For `CCc1c(C)nn(C(=O)NCCc2ccc(S(=O)(=O)NC(=O)NC3CCCCC3)cc2)c1C` [compound 11], it took a dose of 4.8 mg/kg to reach the 50% effect level (ED50). Where the note is “1 h”, at 4 mg/kg the inhibition in vivo was 16%, the inhibition in vivo at 10 mg/kg worked out at 29% and the inhibition in vivo at 50 mg/kg was 57%. Where the note is “3 h”, this molecule showed an inhibition in vivo at 4 mg/kg of 27%, an inhibition in vivo at 10 mg/kg of 53% and an inhibition in vivo at 50 mg/kg of 60%. Under “6 h”, this molecule came in with an inhibition in vivo at 4 mg/kg of 3% and an inhibition in vivo at 50 mg/kg of 53%.

Molecule `Cc1cn(C(=O)NCCc2ccc(S(=O)(=O)NC(=O)NC3CCCCC3)cc2)nc1C` [compound 7] returned an ED50 of 3.3 mg/kg. Besides, where the note is “1 h”, the inhibition in vivo at 0.25 mg/kg was found to be 11%, the inhibition in vivo at 0.5 mg/kg stood at 19%, testing at 2 mg/kg gave an inhibition in vivo of 18% and testing at 10 mg/kg gave an inhibition in vivo of 37%. Besides, for the setting “3 h”, the inhibition in vivo at 0.25 mg/kg is 17%, testing at 0.5 mg/kg gave an inhibition in vivo of 29%, 2 mg/kg produced 24% inhibition in vivo and the inhibition in vivo at 10 mg/kg was determined as 54%. Where the note is “6 h”, this molecule registered an inhibition in vivo at 0.25 mg/kg of 11%, an inhibition in vivo at 0.5 mg/kg of 20%, an inhibition in vivo at 2 mg/kg of 19% and an inhibition in vivo at 10 mg/kg of 26%.

For `CCCc1c(C)nn(C(=O)NCCc2ccc(S(=O)(=O)NC(=O)NC3CCCCC3)cc2)c1C` [compound 12], the inhibition in vivo at 10 mg/kg is 14% (1 h) and 10% (6 h). Also, the inhibition in vivo at 50 mg/kg is, setting by setting: (1 h) 22%; (3 h) 39%; (6 h) 32%.

With `CCCCc1c(C)nn(C(=O)NCCc2ccc(S(=O)(=O)NC(=O)NC3CCCCC3)cc2)c1C` [compound 13], the inhibition in vivo at 10 mg/kg (1 h) stood at 0%. The same molecule showed an inhibition in vivo at 50 mg/kg (1 h) of 18%, an inhibition in vivo at 50 mg/kg (3 h) of 27% and an inhibition in vivo at 50 mg/kg (6 h) of 3%.

`Cc1cnn(C(=O)NCCc2ccc(S(=O)(=O)NC(=O)NC3CCCCC3)cc2)c1` [compound 3] had an ED50 of 1.9 mg/kg. In addition, where the note is “1 h”, at 1 mg/kg the inhibition in vivo was 20%, the inhibition in vivo at 2 mg/kg was 35%, 4 mg/kg produced 33% inhibition in vivo and at 10 mg/kg the inhibition in vivo was 52%. Besides, for the setting “3 h”, the inhibition in vivo at 1 mg/kg was 18%, the inhibition in vivo at 2 mg/kg turned out to be 28%, 4 mg/kg produced 32% inhibition in vivo and the inhibition in vivo at 10 mg/kg was 48%. In addition, under “6 h”, at 1 mg/kg the inhibition in vivo was 4%, the inhibition in vivo at 2 mg/kg stood at 2% and testing at 10 mg/kg gave an inhibition in vivo of 37%.

On to `Cc1ccn(C(=O)NCCc2ccc(S(=O)(=O)NC(=O)NC3CCCCC3)cc2)n1` [compound 2], for which it took a dose of 2.2 mg/kg to reach the 50% effect level (ED50). For the setting “1 h”, this molecule registered an inhibition in vivo at 1 mg/kg of 19%, an inhibition in vivo at 2 mg/kg of 23% and an inhibition in vivo at 4 mg/kg of 30%. For the setting “3 h”, this molecule returned an inhibition in vivo at 1 mg/kg of 9%, an inhibition in vivo at 2 mg/kg of 27% and an inhibition in vivo at 4 mg/kg of 45%. Further, under “6 h”, the inhibition in vivo at 1 mg/kg is 0%, the inhibition in vivo at 2 mg/kg worked out at 14% and the inhibition in vivo at 4 mg/kg amounted to 21%.

`CCc1cnn(C(=O)NCCc2ccc(S(=O)(=O)NC(=O)NC3CCCCC3)cc2)c1` [compound 4] gave an ED50 of 1.6 mg/kg. Under “1 h”, this molecule returned an inhibition in vivo at 1 mg/kg of 28%, an inhibition in vivo at 2 mg/kg of 46%, an inhibition in vivo at 4 mg/kg of 40% and an inhibition in vivo at 10 mg/kg of 55%. Under “3 h”, this molecule registered an inhibition in vivo at 1 mg/kg of 4%, an inhibition in vivo at 2 mg/kg of 18%, an inhibition in vivo at 4 mg/kg of 32% and an inhibition in vivo at 10 mg/kg of 39%. Under “6 h”, this molecule yielded an inhibition in vivo at 1 mg/kg of 0%, an inhibition in vivo at 2 mg/kg of 1% and an inhibition in vivo at 10 mg/kg of 25%.
